According to patent US20060231107A1, “Antibody-targeted photodynamic therapy” (priority 2003, published 2006):

Tests used:
[1] = system: VEGF-expressing, murine endothelial cells (MS-1 VEGF, ATCC); assay: Photodynamic cell viability by trypan blue exclusion; format: cell-based; details: for cell viability (trypan blue exclusion) compared with Dulbecco's PBS controls: laser-exposed (647 nm, 56.5 J/cm), verteporfin 40 μg/ml, P<0.0001
Experimental: FIG. 3 is a graph showing the mean percent cell viability by trypan blue exclusion over eight experimental runs in 24-well culture plates for VEGF-expressing endothelial cells in Dulbecco's phosphate buffered saline (“DPBS”), cells incubated with verteporfin ([sequence]) at 40 μg/ml (“Verteporfin”), and cells incubated with verteporfin ([sequence]) conjugated to anti-VEGF antibody (“Conjugate”). Error bars indicate 1 standard deviation from the mean. The cells received either no laser treatment or were exposed to krypton-ion CW laser (647 nm) at a total light dosage of 56.5 J/cm for either 1 hour (left) or 24 hours (right).
Experiments were conducted in a line of cultured, VEGF-expressing, murine erdothelial cells (MS-1 VEGF, ATCC). Cells were grown in 24-well culture plates under standard cell culture conditions in Dulbecco's minimal essential medium (DMEM) with 10% fetal calf serum. Cells were incubated for one hour with either phosphate buffered saline solution alone, verteporfin at 40 μg/ml, or verteporfin-anti-VEGF antibody conjugate (FIG. 2A). All cells were washed twice with phosphate buffered saline following incubation to remove unbound photosensitizer. The photosensitizer was excited by exposing selected wells to the krypton-ion CW laser (647 nm) at a total light dosage of 56.5 J/cm, which is the recommended ophthalmic light dosage (FIG. 2A). For each treatment condition, there were laser-exposed and non-exposed groups. Following laser exposure, cells were incubated for either 1 or 24 hours, and cell viability was assessed using trypan blue exclusion.

[2] = system: MS-1 vascular endothelial cells; assay: Binding kinetics: fluorescence intensity of labeled MS-1 cells in confocal micrographs; format: cell-based, murine; details: within the first 10 minutes of labeling (FIG. 7)
Experimental: FIG. 7 is a graph of fluorescence intensity of conjugate-labeled and VISUDYNE-labeled MS-1 vascular endothelial cells as a function of incubation time. The fluorescence intensity of confocal micrographs was determined with the “histogram” analysis tool of the ImagePro image processing software program (Media Cybernetics; Silver Springs, Md.). Intensity is expressed as the accumulated pixel counts in the image.
In order to provide a more quantitative comparison of the binding kinetics of the conjugate and the native VISUDYNE, the fluorescence intensity of the MS-1 cells labeled for varying durations was measured in a series of confocal micrographs using the “histogram” tool of ImagePro image processing program (Media Cybernetics; Silver Springs, Md.). […] Accordingly, if the laser activation were to be applied within 10 minutes of application of the conjugate, essentially maximum photodynamic effect would be realized. Targets not expressing the VEGF factor would not be as strongly labeled. This improved selectivity of the conjugate for VEGF-expressing targets is a distinct advantage over the native VISUDYNE.

**Q.** verteporfin was tested. Which “cell viability (trypan blue exclusion) compared with Dulbecco's PBS controls” value ([1]; 1 hour after laser) did it give?
**A.** Its value is “large losses of viability”.

**Q.** And the “cell viability (trypan blue exclusion) compared with Dulbecco's PBS controls” value ([1]; 24 hours after laser)?
**A.** The value was “large losses of viability”.

**Q.** And the “cell viability without laser exposure” value ([1]; no laser, possible toxicity or low-level activation by ambient light)?
**A.** Its value is “reduced viability”.

**Q.** And the “binding to the target cells (fluorescence intensity)” value [2]?
**A.** Its value is “approximately 50 % of maximum binding”.
